According to ChEMBL document CHEMBL1134944, “Design and synthesis of xanthine analogues as potent and selective PDE5 inhibitors” (Bioorg Med Chem Lett, 2002):
pIC50: −log10 of the molar value. Calls of active or inactive are those of the source. The calls are words filed in the database; no cut-off is given here.

Assays:
[1] = target: T1, cGMP-specific 3',5'-cyclic phosphodiesterase (Homo sapiens, UniProt O76074); assay: Percentage inhibition against human phosphodiesterase type 5 isolated from corpus cavernosum at 100 nM.
Oryctolagus cuniculus [2] = species: Oryctolagus cuniculus; assay: 0.50 Hz electrical frequency stimulated (EFS) relaxation of rabbit corpus cavernosum at 25-30 nM; assay type: functional
[3] = target: Phosphodiesterases; PDE5 & PDE6 (Homo sapiens) (UniProt O76074+Q13956+P18545+P35913+O43924+P16499+P51160); assay: Selectivity for PDE6 compared to PDE5.; assay type: protein assay
Oryctolagus cuniculus [4] = species: Oryctolagus cuniculus; assay: 4.0 Hz electrical frequency stimulated (EFS) relaxation of rabbit corpus cavernosum at 25-30 nM; assay type: functional
Oryctolagus cuniculus [5] = species: Oryctolagus cuniculus; assay: 2.0 Hz electrical frequency stimulated (EFS) relaxation of rabbit corpus cavernosum at 25-30 nM; assay type: functional
Oryctolagus cuniculus [6] = species: Oryctolagus cuniculus; assay: 8.0 Hz electrical frequency stimulated (EFS) relaxation of rabbit corpus cavernosum at 25-30 nM; assay type: functional
[7] = target: T1, cGMP-specific 3',5'-cyclic phosphodiesterase; assay: Concentration required to inhibit phosphodiesterase type 5 (PDE5) isolated from corpus cavernosum by 50% was determined
Oryctolagus cuniculus [8] = species: Oryctolagus cuniculus; assay: 16.0 Hz electrical frequency stimulated (EFS) relaxation of rabbit corpus cavernosum at 25-30 nM; assay type: functional
Oryctolagus cuniculus [9] = species: Oryctolagus cuniculus; assay: 1.0 Hz electrical frequency stimulated (EFS) relaxation of rabbit corpus cavernosum at 25-30 nM; assay type: functional
[10] = Relative inhibition of PDEs 1-4 and PDE5

inhibition [1] [%]	Ratio [3]	pIC50 [7]	SMILES	further results
17			Cn1c(=O)c2c(nc(N[C@@H]3CCC[C@H]3O)n2Cc2ccccc2)n(C)c1=O	
54			Cn1c(=O)c2c(nc(NC3CCCCC3)n2Cc2ccccc2)n(C)c1=O	
	101	9.22	CCn1c(=O)c2c(nc(NC3CCCCC3)n2Cc2ccc(O)cc2)n(CC)c1=O	Relaxation (Oryctolagus cuniculus [2]): 25%; Relaxation (Oryctolagus cuniculus [4]): 75%; Relaxation (Oryctolagus cuniculus [5]): 75%; Relaxation (Oryctolagus cuniculus [6]): 75%; Relaxation (Oryctolagus cuniculus [8]): 75%; Relaxation (Oryctolagus cuniculus [9]): 50%; Ratio [10]: > 3000
62			Cn1c(=O)c2c(nc(NC3CCCC3)n2Cc2ccccc2)n(C)c1=O	
52			CC(C)Cn1c(=O)n(C)c(=O)c2c1nc(NC1CCCCC1)n2Cc1ccccc1	
63			CCn1c(=O)c2c(nc(NC3CCCCC3)n2Cc2ccccc2)n(CC(C)C)c1=O	
11			CC(C)[C@H](CO)Nc1nc2c(c(=O)n(C)c(=O)n2C)n1Cc1ccccc1	
	350	9.52	CCn1c(=O)c2c(nc(NC3CCCCC3)n2Cc2ccc(OC)c(F)c2)n(CC)c1=O	Ratio [10]: > 28000
91	21		CCn1c(=O)c2c(nc(NC3CCCC3)n2Cc2ccccc2)n(CC)c1=O	
0			Cn1c(=O)c2c(nc(N[C@H](CO)Cc3ccccc3)n2Cc2ccccc2)n(C)c1=O	
	364	9.48	CCn1c(=O)c2c(nc(NC3CCCCC3)n2Cc2ccc(O)c(F)c2)n(CC)c1=O	Ratio [10]: > 12000
2			CC(C)[C@@H](CO)Nc1nc2c(c(=O)n(C)c(=O)n2C)n1Cc1ccccc1	
	46	8.82	CCn1c(=O)c2c(nc(NC3CCCC3)n2Cc2ccc(O)cc2)n(CC)c1=O	
	219	8.77	CCn1c(=O)c2c(nc(NC3CCCCC3)n2Cc2ccc(OC)c(Br)c2)n(CC)c1=O	Ratio [10]: > 10000
	14	8.43	CCn1c(=O)c2c(nc(NC3CCCCC3)n2Cc2ccc3c(c2)OCO3)n(CC)c1=O	
	36	8.92	CCn1c(=O)c2c(nc(NC3CCCCC3)n2Cc2cccc(O)c2)n(CC)c1=O	
	345	9.24	CCn1c(=O)c2c(nc(NC3CCCCC3)n2Cc2ccc(OC)c(Cl)c2)n(CC)c1=O	Ratio [10]: > 9500

inhibition [1] [%]	Ratio [3]	pIC50 [7]	SMILES	further results
49			CC(C)Cn1c(=O)n(C)c(=O)c2c1nc(NC1CCCC1)n2Cc1ccccc1	
	133	8.35	CCn1c(=O)c2c(nc(NC3CCCCC3)n2Cc2ccc(O)c(C)c2)n(CC)c1=O	
	261	8.74	CCn1c(=O)c2c(nc(NC3CCCC3)n2Cc2ccc(O)c(Cl)c2)n(CC)c1=O	
	58	7.72	CCn1c(=O)c2c(nc(NC3CCCCC3)n2Cc2ccc(OC)c(C)c2)n(CC)c1=O	
	250	8.70	CCn1c(=O)c2c(nc(NC3CCCCC3)n2Cc2ccc(O)c(Cl)c2)n(CC)c1=O	
5			Cn1c(=O)c2c(nc(N[C@H](CO)c3ccccc3)n2Cc2ccccc2)n(C)c1=O	
	inactive	7.00	CCn1c(=O)c2c(nc(NC3CCCCC3)n2Cc2cccc(OC)c2)n(CC)c1=O	
0			Cn1c(=O)c2c(nc(N[C@@H](CO)c3ccccc3)n2Cc2ccccc2)n(C)c1=O	
	33	8.68	CCn1c(=O)c2c(nc(NC3CCCC3)n2Cc2ccc(OC)cc2)n(CC)c1=O	
93	35	7.92	CCn1c(=O)c2c(nc(NC3CCCCC3)n2Cc2ccccc2)n(CC)c1=O	
	89	9.16	CCn1c(=O)c2c(nc(NC3CCCC3)n2Cc2ccc(OC)c(F)c2)n(CC)c1=O	
	118	8.96	CCn1c(=O)c2c(nc(NC3CCCC3)n2Cc2ccc(OC)c(Cl)c2)n(CC)c1=O	
	182	9.09	CCn1c(=O)c2c(nc(NC3CCCC3)n2Cc2ccc(O)c(F)c2)n(CC)c1=O	Ratio [10]: > 4400
4			Cn1c(=O)c2c(nc(N[C@@H](CO)Cc3ccccc3)n2Cc2ccccc2)n(C)c1=O	
56			CCn1c(=O)c2c(nc(NC3CCCC3)n2Cc2ccccc2)n(CC(C)C)c1=O	
	51	8.59	CCn1c(=O)c2c(nc(NC3CCCCC3)n2Cc2ccc(OC)cc2)n(CC)c1=O	
10			Cn1c(=O)c2c(nc(NCC3(O)CCCCC3)n2Cc2ccccc2)n(C)c1=O	
